Source: the supplement of paper PMC11061612

What was measured:
Venetoclax = compound: CC1(C)CCC(CN2CCN(c3ccc(C(=O)NS(=O)(=O)c4ccc(NCC5CCOCC5)c([N+](=O)[O-])c4)c(Oc4cnc5[nH]ccc5c4)c3)CC2)=C(c2ccc(Cl)cc2)C1 [Venetoclax]; settings: max 1 µM
Outline: (§1)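 Viability was measured with CellTiter-Glo 2.0 luminescence after 72 hours of dosing at a final DMSO of typically 0.2%, and scaled between blank-well and DMSO-well means. Beforehand, cancer cell lines sat 24 hours at 37°C and 5% CO2 in 1536-well plates in 7.5 μl DMEM/F12 or RPMI with 10% FBS. A non-linear mixed effects model fitted two-parameter logistic curves to the dose responses. The single-agent IC50 comes from these fits.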

Olaparib = compound: O=C(c1cc(Cc2n[nH]c(=O)c3ccccc23)ccc1F)N1CCN(C(=O)C2CC2)CC1 [Olaparib]; settings: max 10 µM
Outline: as §1

AZD2811 = compound: CCN(CCO)CCCOc1ccc2c(Nc3cc(CC(=O)Nc4cccc(F)c4)[nH]n3)ncnc2c1 [AZD2811]; settings: max 1 µM
Outline: as §1

Prexasertib = compound: COc1cccc(OCCCN)c1-c1cc(Nc2cnc(C#N)cn2)n[nH]1 [Prexasertib]; settings: max 1 µM
Outline: as §1

Doxorubicin = compound: COc1cccc2c1C(=O)c1c(O)c3c(c(O)c1C2=O)C[C@@](O)(C(=O)CO)C[C@@H]3O[C@H]1C[C@H](N)[C@H](O)[C@H](C)O1 [Doxorubicin]; settings: max 1 µM
Outline: as §1

Selumetinib = compound: Cn1cnc2c(F)c(Nc3ccc(Br)cc3Cl)c(C(=O)NOCCO)cc21 [Selumetinib]; settings: max 10 µM
Outline: as §1

AZD5991 = compound: Cc1c2c(nn1C)CSCc1cc(n(C)n1)CSc1cc(c3ccccc3c1)OCCCc1c(C(=O)O)n(C)c3c-2c(Cl)ccc13 [AZD5991]; settings: max 1 µM
Outline: as §1

Crizotinib = compound: C[C@@H](Oc1cc(-c2cnn(C3CCNCC3)c2)cnc1N)c1c(Cl)ccc(F)c1Cl [Crizotinib]; settings: max 10 µM
Outline: as §1

AZD0156 = compound: CN(C)CCCOc1ccc(-c2ccc3ncc4c(c3c2)n(C2CCOCC2)c(=O)n4C)cn1 [AZD0156]; settings: max 3 µM
Outline: as §1

SN-38 = compound: CCc1c2c(nc3ccc(O)cc13)-c1cc3c(c(=O)n1C2)COC(=O)[C@]3(O)CC [SN-38]; settings: max 0.3 µM
Outline: as §1

AZD1775 = compound: C=CCn1c(=O)c2cnc(Nc3ccc(N4CCN(C)CC4)cc3)nc2n1-c1cccc(C(C)(C)O)n1 [AZD1775]; settings: max 3 µM
Outline: as §1

Gefitinib = compound: COc1cc2ncnc(Nc3ccc(F)c(Cl)c3)c2cc1OCCCN1CCOCC1 [Gefitinib]; settings: max 10 µM
Outline: as §1

Palbociclib = compound: CC(=O)c1c(C)c2cnc(Nc3ccc(N4CCNCC4)cn3)nc2n(C2CCCC2)c1=O [Palbociclib]; settings: max 10 µM
Outline: as §1

AZD7648 = compound: Cc1cc2ncnn2cc1Nc1ncc2c(n1)n(C1CCOCC1)c(=O)n2C [AZD7648]; settings: max 10 µM
Outline: as §1

Capivasertib = compound: C1CN(CCC1(C(=O)N[C@@H](CCO)C2=CC=C(C=C2)Cl)N)C3=NC=NC4=C3C=CN4 [Capivasertib]; settings: max 10 µM
Outline: as §1

Savolitinib = compound: C[C@@H](c1ccc2nccn2c1)n1nnc2ncc(-c3cnn(C)c3)nc21 [Savolitinib]; settings: max 1 µM
Outline: as §1

AZD4320 = compound: CN(CC[C@H](CSC1=CC=CC=C1)NC2=C(C=C(C=C2)S(=O)(=O)NC(=O)C3=CC=C(C=C3)N4CCC(CC4)[C@H](C5=CC=CC=C5C6=CC=C(C=C6)Cl)O)S(=O)(=O)C(F)(F)F)CCO [AZD4320]; settings: max 1 µM
Outline: as §1

Alisertib = compound: COc1cc(Nc2ncc3c(n2)-c2ccc(Cl)cc2C(c2c(F)cccc2OC)=NC3)ccc1C(=O)O [Alisertib]; settings: max 10 µM
Outline: as §1

AZD8186 = compound: C[C@@H](Nc1cc(F)cc(F)c1)c1cc(C(=O)N(C)C)cc2c(=O)cc(N3CCOCC3)oc12 [AZD8186]; settings: max 3 µM
Outline: as §1

AZD6738 = compound: C[C@@H]1COCCN1C2=NC(=NC(=C2)C3(CC3)[S@](=N)(=O)C)C4=C5C=CNC5=NC=C4 [AZD6738]; settings: max 10 µM
Outline: as §1

SG3199 = compound: CC1=CN2[C@@H](C1)C=NC3=CC(=C(C=C3C2=O)OC)OCCCCCOC4=C(C=C5C(=C4)N=C[C@@H]6CC(=CN6C5=O)C)OC [SG3199]; settings: max 0.001 µM
Outline: as §1

Dasatinib = compound: CC1=C(C(=CC=C1)Cl)NC(=O)C2=CN=C(S2)NC3=CC(=NC(=N3)C)N4CCN(CC4)CCO [Dasatinib]; settings: max 2 µM
Outline: as §1

Lapatinib = compound: CS(=O)(=O)CCNCc1ccc(-c2ccc3ncnc(Nc4ccc(OCc5cccc(F)c5)c(Cl)c4)c3c2)o1 [Lapatinib]; settings: max 10 µM
Outline: as §1

Taselisib = compound: Cc1nc(-c2cn3c(n2)-c2ccc(-c4cnn(C(C)(C)C(N)=O)c4)cc2OCC3)n(C(C)C)n1 [Taselisib]; settings: max 10 µM
Outline: as §1

AZD1390 = compound: CC(C)n1c(=O)n(C)c2cnc3cc(F)c(-c4ccc(OCCCN5CCCCC5)nc4)cc3c21 [AZD1390]; settings: max 0.3 µM
Outline: as §1

AZD5153 = compound: COc1nnc2ccc(N3CCC(c4ccc(OCCN5CCN(C)C(=O)[C@H]5C)cc4)CC3)nn12 [AZD5153]; settings: max 1 µM
Outline: as §1

Trametinib = compound: CC(=O)Nc1cccc(-n2c(=O)n(C3CC3)c(=O)c3c(Nc4ccc(I)cc4F)n(C)c(=O)c(C)c32)c1 [Trametinib]; settings: max 1 µM
Outline: as §1

MK-2206 = compound: NC1(c2ccc(-c3nc4ccn5c(=O)[nH]nc5c4cc3-c3ccccc3)cc2)CCC1 [MK-2206]; settings: max 10 µM
Outline: as §1

Cell Line | IC50, cell viability 72 h (Venetoclax) [µM] | IC50, cell viability 72 h (Olaparib) [µM] | IC50, cell viability 72 h (AZD2811) [µM] | IC50, cell viability 72 h (Prexasertib) [µM] | IC50, cell viability 72 h (Doxorubicin) [µM] | IC50, cell viability 72 h (Selumetinib) [µM] | IC50, cell viability 72 h (AZD5991) [µM] | IC50, cell viability 72 h (Crizotinib) [µM] | IC50, cell viability 72 h (AZD0156) [µM] | IC50, cell viability 72 h (SN-38) [µM] | IC50, cell viability 72 h (AZD1775) [µM] | IC50, cell viability 72 h (Gefitinib) [µM] | IC50, cell viability 72 h (Palbociclib) [µM] | IC50, cell viability 72 h (AZD7648) [µM] | IC50, cell viability 72 h (Capivasertib) [µM] | IC50, cell viability 72 h (Savolitinib) [µM] | IC50, cell viability 72 h (AZD4320) [µM] | IC50, cell viability 72 h (Alisertib) [µM] | IC50, cell viability 72 h (AZD8186) [µM] | IC50, cell viability 72 h (AZD6738) [µM] | IC50, cell viability 72 h (SG3199) [µM] | IC50, cell viability 72 h (Dasatinib) [µM] | IC50, cell viability 72 h (Lapatinib) [µM] | IC50, cell viability 72 h (Taselisib) [µM] | IC50, cell viability 72 h (AZD1390) [µM] | IC50, cell viability 72 h (AZD5153) [µM] | IC50, cell viability 72 h (Trametinib) [µM] | IC50, cell viability 72 h (MK-2206) [µM]
639-V (Bladder Carcinoma) | > 1 | > 10 | > 1 | 0.948 | 0.574 | > 10 | > 1 | > 10 | > 3 | 0.00366 | 2.21 | > 10 | > 10 | > 10 | > 10 | > 1 | > 1 | 2.98 | > 3 | > 10 | > 0.001 | 1.38 | > 10 | 2.46 | > 0.3 | 0.257 | > 1 | –
CAL-51 (Breast Carcinoma) | > 1 | > 10 | > 1 | 0.0253 | 0.415 | > 10 | > 1 | > 10 | > 3 | 0.053 | 0.583 | > 10 | > 10 | > 10 | 4.41 | > 1 | > 1 | 6.96 | > 3 | 1.51 | > 0.001 | > 2 | > 10 | 1.3 | > 0.3 | 0.469 | > 1 | –
COLO-829 (Melanoma) | > 1 | > 10 | > 1 | > 1 | > 1 | 8.42 | > 1 | > 10 | > 3 | > 0.3 | > 3 | > 10 | > 10 | > 10 | > 10 | > 1 | > 1 | > 10 | > 3 | > 10 | > 0.001 | 0.598 | > 10 | > 10 | > 0.3 | > 1 | 0.279 | > 10
HCC-15 (Squamous Cell Lung Carcinoma) | > 1 | > 10 | 0.657 | > 1 | > 1 | 4.44 | > 1 | > 10 | > 3 | > 0.3 | 1.35 | > 10 | > 10 | > 10 | > 10 | > 1 | 0.216 | 0.181 | > 3 | > 10 | > 0.001 | > 2 | > 10 | > 10 | > 0.3 | > 1 | 0.164 | –
KARPAS-231 (B-Cell Non-Hodgkin's Lymphoma) | 0.007 | > 10 | 0.264 | 0.0125 | 0.899 | > 10 | 0.0314 | > 10 | > 3 | 0.00168 | 0.123 | > 10 | > 10 | > 10 | > 10 | > 1 | 0.0212 | 1.02 | > 3 | 6.03 | > 0.001 | > 2 | > 10 | > 10 | > 0.3 | > 1 | > 1 | –
KYSE-410 (Esophageal Squamous Cell Carcinoma) | > 1 | > 10 | > 1 | 0.952 | > 1 | > 10 | > 1 | > 10 | > 3 | > 0.3 | 2.21 | > 10 | > 10 | > 10 | > 10 | > 1 | > 1 | > 10 | > 3 | > 10 | > 0.001 | 1.9 | 8.74 | 2.71 | > 0.3 | > 1 | > 1 | –
